Assay results: US20050261292A1, “Pharmaceutical composition containing N-sulfamoyl-N'-arylpiperazines for the treatment or inhibition of obesity and related conditions” (Solvay Pharmaceuticals GmbH, priority 2004, published 2005)
Structures can show the parent of a compound that is named as a salt.

What was measured:
[1] = target: T1, human carbonic anhydrase isoenzyme II (hCA II) (Homo sapiens, UniProt P00918); assay: In vitro inhibition of human carbonic anhydrase isoenzyme II (hCA II), dansylamide fluorescence; type: biochemical; settings: hCA II from erythrocytes 10^-7 M, 60 min, single measurements, read-out: hCA II inhibiting effect in vitro, IC50
T1 construct: human carbonic anhydrase isoenzyme II from erythrocytes (Sigma-Aldrich); purchased Sigma-Aldrich; host or cells: human erythrocytes (natural source)
Protocol: 1. In vitro Inhibition of Human Carbonic Anhydrase Isoenzyme II (hCA II)
The test compounds of Formula I in 96 well microplates were diluted with aqua bidest by using an automatic pipettor (CyBiWell®). From the different dilution plates, aliquots of 20 μl were transferred to the 96 well black assay plates with a pipetting station (Tecan Genesis®). In a second step, 148 μl of potassium phosphate buffer (20 mM, pH 7.4) was added, and as a third step, 20 μl of enzyme solution (1 μM human carbonic anhydrase isoenzyme II from erythrocytes (Sigma-Aldrich), dissolved in potassium phosphate buffer) incubated for 60 min at room temperature and the fluorescence signal (Tecan Ultra® fluorescence reader; excitation wavelength: 280 nm; emission wavelength: 465 nm) read at the end of the preincubation period (FLU-1). After the preincubation time, 20 μl of aqueous dansylamide solution (1 mM dansylamide (Sigma-Aldrich), dissolved in hydrochloric acid) were added and the fluorescence signal read every 10 min for a period of 60 min at 37° C. For calculation, the fluorescence data of the time point 60 min (FLU-2) were used. The total volume of assay mixture amounted to 208 μl. The final concentration of carbonic anhydrase II was 10^−7 M/L, of dansylamide 2.25×10^−6 and of compounds from 10^−8 M/L up to 10^−5 M/L. Final concentration of DMSO as compound solvent was […]. Each microplate also contained blanks without compound and enzyme, controls without compound and ethoxzolamide (final concentration 5×10^−8 M/L). All data reflect single measurements. Data were expressed as % inhibition after calculation by the formula: % inhibition=100((1−(FLU−2cpd−FLU−2blank−FLU−1cpd+FLU−1blank)/(FLU−2control−FLU−2blank−FLU−1control−FLU−1blank))
The % inhibition data for each compound and the respective final concentrations were used for IC50 calculations by using the Prism 4 software. Concentration action figures were calculated by applying the Prism algorithm for nonlinear regression (curve-fit): sigmoidal dose response with variable slope and the constraints: top: 100 and bottom 0.

male fatty Zucker rats = assay: In vivo oral glucose tolerance test in the rat; settings: 100 mg/kg/day oral gavage; for Glucose Baseline / Insulin Baseline: 0 min sample before glucose challenge; for Insulin Baseline / Insulin AUC / Insulin Maximal effect: plasma; for Glucose Maximal effect / Glucose AUC / Insulin AUC / Insulin Maximal effect: oral glucose challenge 1.25 g/kg; for Glucose AUC / Insulin AUC: 0-120 min
Protocol: 2. In vivo Oral Glucose Tolerance Test in the Rat
The studies were carried out in individually housed male fatty Zucker rats (n=10 per group) weighing ca. 250-500 g. The rats were kept on a normal 12/12 h light/dark cycle (lights on 07.00) and they were allowed food (lab chow) and water ad libitum except for during experiments, when they were fasted overnight before the glucose challenge.
The test substances of Formula I were suspended in 2% polyethylenglycol (=PEG) 1% carboxymethylcellulose and administered by oral gavage at a dose of 100 mg/kg/day; ⅓ of the dose (1 ml/kg, 33 mg/ml) was administered at 08.30-09.30 h; the remaining […] (2 ml/kg; 33 mg/ml) was administered between 16.00-17.00 h and the last ⅓ dose was given the following morning. Control animals received only the vehicle. On the day of the test, 45 min after the final dose of test substance/vehicle a blood sample (0 min) was taken (tail vein) immediately after which the rats received an oral glucose challenge (1.25 g/kg; 118 mg/ml). Further blood samples were taken at 30, 60, 90, 120 min after the glucose challenge. The second drop of blood of each sample was placed on a glucose test strip before this was placed in the glucose meter for determination of blood glucose level (Life Scan One Touch Ultra Blood® Glucose Meter and Life Scan One Touch Ultra® Test Strips; Life Scan Inc.; Milpitas, Calif. 95035). The remaining blood of each sample was spun and the plasma was frozen at −80° C. before analysis for insulin (1-2-3 Rat Insulin ELISA kit, Alpco Diagnostics).
The values obtained were plotted and the AUC for test compounds and vehicle (for glucose and insulin) were determined after which the percent control AUC, percent control maximum value and % control baseline were estimated, to determine the influence of the test compound on the glucose tolerance.

male C57Bl/6 mice = assay: Acute in vivo food intake test in mice; settings: high caloric diet, 100 mg/kg/day oral gavage in two halves
Protocol: 3. Acute in vivo Food Intake Test in Mice
The studies were carried out in individually housed male C57Bl/6 mice (n=8 per group). The mice were kept on an inverted 12/12 h light/dark cycle (lights on 22:00). They were allowed food (high caloric diet) and water ad libitum. Food intake and water consumption was measured daily. The test compound of Formula I was suspended in 1% methylcellulose in water and 2% (v/v) of Poloxamer 188 (Lutrol F68®) and administered by oral gavage at a dose of 100 mg/kg/day.
In the test model described above, the test substances caused a decrease of the animals' 24 h food intake to the percentages of food intake when compared to control as given in table 3 below.

SMILES | melting point | IC50 [1] | also measured
NS(=O)(=O)N1CCN(c2ccncc2)CC1 (as salt: HCl) [Example 6, 4-pyridin-4-yl-piperazine-1-sulfonic acid amide] | 243 °C | – | –
Cc1cccc(N2CCN(S(N)(=O)=O)CC2)c1C (as salt: HCl) [Example 8] | 202 °C | – | –
NS(=O)(=O)N1CCN(c2ccc(F)cc2)CC1 (as salt: HCl) [Example 9, 4-(4-fluoro-phenyl)-piperazine-1-sulfonic acid amide] | 125 °C | – | –
Cc1ccc(Cl)cc1N1CCN(S(N)(=O)=O)CC1 (as salt: HCl) [Example 11] | 190 °C | – | –
NS(=O)(=O)N1CCN(c2ccc(Cl)c(C(F)(F)F)c2)CC1 (as salt: HCl) [Example 12, 4-(4-chloro-3-trifluoromethyl-phenyl)-piperazine-1-sulfonic acid amide] | 180 °C | – | –
N#Cc1cccnc1N1CCN(S(N)(=O)=O)CC1 (as salt: HCl) [Example 13] | 190 °C | – | –
NS(=O)(=O)N1CCN(c2ncc(C(F)(F)F)cc2Cl)CC1 (as salt: HCl) [Example 14, 4-(3-chloro-5-trifluoromethyl-pyridin-2-yl)-piperazine-1-sulfonic acid amide] | 159 °C | – | –
CC(=O)c1ccc(N2CCN(S(N)(=O)=O)CC2)cc1 (as salt: HCl) [Example 15] | 156 °C | – | –
NS(=O)(=O)N1CCN(c2c(Cl)cncc2Cl)CC1 (as salt: HCl) [Example 16] | 206 °C | – | –
NS(=O)(=O)N1CCN(c2cc(C(F)(F)F)nc3ccccc23)CC1 (as salt: HCl) [Example 17] | 191 °C | – | –
NS(=O)(=O)N1CCN(c2nccc(C(F)(F)F)n2)CC1 (as salt: HCl) [Example 18] | 156 °C | – | –
NS(=O)(=O)N1CCN(c2ccc(C(F)(F)F)cn2)CC1 (as salt: HCl) [Example 19] | 169 °C | – | –
NS(=O)(=O)N1CCN(c2ccc(C(F)(F)F)cc2[N+](=O)[O-])CC1 (as salt: HCl) [Example 20] | 134 °C | – | –
CS(=O)(=O)c1ccc(N2CCN(S(N)(=O)=O)CC2)c(F)c1 (as salt: HCl) [Example 21] | 184 °C | – | –
COc1ccccc1N1CCN(S(N)(=O)=O)CC1 [Example 3, 4-(2-Methoxy-phenyl)-piperazine-1-sulfonic acid amide hydrochloride] | – | 7.8 µM | –
NS(=O)(=O)N1CCN(c2ccccn2)CC1 [Example 4, 4-Pyridin-2-yl-piperazine-1-sulfonic acid amide] | – | 3.7 µM | –

SMILES | melting point | IC50 [1] | also measured
NS(=O)(=O)N1CCN(c2ccncc2)CC1 [Example 6, 4-pyridin-4-yl-piperazine-1-sulfonic acid amide] | – | – | Glucose Baseline (male fatty Zucker rats): 91 % of control; Insulin Baseline (male fatty Zucker rats): 109 % of control; Glucose Maximal effect (male fatty Zucker rats): 84 % of control; Glucose AUC (male fatty Zucker rats): 89 % of control; Insulin AUC (male fatty Zucker rats): 104 % of control; Insulin Maximal effect (male fatty Zucker rats): 123 % of control
NS(=O)(=O)N1CCN(c2ncccn2)CC1 [Example 7, 4-pyrimidin-2-yl-piperazine-1-sulfonic acid amide] | – | 1.8 µM | 24 h food intake (male C57Bl/6 mice): 78 % of control
Cc1cccc(N2CCN(S(N)(=O)=O)CC2)c1C [Example 8] | – | 1.7 µM | –
NS(=O)(=O)N1CCN(c2ccc(F)cc2)CC1 [Example 9, 4-(4-fluoro-phenyl)-piperazine-1-sulfonic acid amide] | – | 7.3 µM | –
NS(=O)(=O)N1CCN(c2cccc(Cl)c2)CC1 [Example 10] | – | 4 µM | –
Cc1ccc(Cl)cc1N1CCN(S(N)(=O)=O)CC1 [Example 11] | – | 0.5 µM | –
NS(=O)(=O)N1CCN(c2ccc(Cl)c(C(F)(F)F)c2)CC1 [Example 12, 4-(4-chloro-3-trifluoromethyl-phenyl)-piperazine-1-sulfonic acid amide] | – | 1.2 µM | 24 h food intake (male C57Bl/6 mice): 53 % of control
N#Cc1cccnc1N1CCN(S(N)(=O)=O)CC1 [Example 13] | – | 0.9 µM | –
NS(=O)(=O)N1CCN(c2ncc(C(F)(F)F)cc2Cl)CC1 [Example 14, 4-(3-chloro-5-trifluoromethyl-pyridin-2-yl)-piperazine-1-sulfonic acid amide] | – | 0.2 µM | Glucose Baseline (male fatty Zucker rats): 88 % of control; Insulin Baseline (male fatty Zucker rats): 97 % of control; Glucose Maximal effect (male fatty Zucker rats): 94 % of control; Glucose AUC (male fatty Zucker rats): 102 % of control; Insulin AUC (male fatty Zucker rats): 107 % of control; Insulin Maximal effect (male fatty Zucker rats): 92 % of control
CC(=O)c1ccc(N2CCN(S(N)(=O)=O)CC2)cc1 [Example 15] | – | 0.4 µM | 24 h food intake (male C57Bl/6 mice): 79 % of control
NS(=O)(=O)N1CCN(c2c(Cl)cncc2Cl)CC1 [Example 16] | – | 0.3 µM | –
NS(=O)(=O)N1CCN(c2cc(C(F)(F)F)nc3ccccc23)CC1 [Example 17] | – | 1.9 µM | –
NS(=O)(=O)N1CCN(c2nccc(C(F)(F)F)n2)CC1 [Example 18] | – | 1.6 µM | –
NS(=O)(=O)N1CCN(c2ccc(C(F)(F)F)cn2)CC1 [Example 19] | – | 0.08 µM | –
NS(=O)(=O)N1CCN(c2ccc(C(F)(F)F)cc2[N+](=O)[O-])CC1 [Example 20] | – | 0.3 µM | –
CS(=O)(=O)c1ccc(N2CCN(S(N)(=O)=O)CC2)c(F)c1 [Example 21] | – | 0.2 µM | 24 h food intake (male C57Bl/6 mice): 76 % of control
